Measured values reported in patent publication EP2966448B1, “METHOD FOR THE PREDICTION OR PROGNOSIS OF THE RESPONSE OF A HUMAN SUBJECT SUFFERING FROM CANCER TO TREATMENT WITH AN ANTAGONIST OF THE NK1 RECEPTOR” (priority 2013, dated 2014).
Like-named read-outs stand apart in the source and are kept apart here.

What was measured:
Endometrium carcinoma = experiment: cells; settings: Homo sapiens, 1 micromolar
Experimental: (§1) Cell cultures. To obtain tumor cells from human primary tumors we used the method described in De Bari et al. (De Bari et al. 2001). Briefly, small pieces of the tumors were digested into a hyaluronidase solution (Sigma-Aldrich, USA) at a concentration of 1 mg/ml during 15 minutes at 37°C, and then they were treated with 6 mg/ml of collagenase type IV (Invitrogen) during 2 hours at 37°C. Consecutively, cells were washed, and resuspended in the DMEM culture medium with high concentration of glucose (Dulbecco's Modified Eagle's Medium, Invitrogen) supplemented with 1% of antibiotics-antimycotics (Invitrogen) and with 1% of sodium pyruvate (Invitrogen), and the cells were seeded in culture slides at a concentration of 10.000 cells per square centimeter. When cells reached confluence, the adherent cells were separated using sterile trypsin at 0,5% (Invitrogen) and they were used among passages 3 and 9. For the assays shown next, tumor cells were seeded on slides at a concentration of 25.000 cells per well. A total of 6 wells containing the tumor cells were used as survival control. […] All the cultures were kept during 48 hours and later on recollected for their analysis.
(§2) Immunohistochemistry techniques. The presence of NK1 receptors was also analyzed using immunohistochemistry techniques. Briefly, a sample of each of the cultures of the cell lines used in the present invention, was centrifuged (5 minutes at 1.500 rpm) and the pellet obtained was dehydrated using increasing concentrations of ethanol and, finally, xylol. Then, said dehydrated samples were embedded in paraffin, creating a block of cells. Such paraffin blocks were cut with a microtome at 5 microns thickness, and were placed on microscope slides adequate to perform immunohistochemistry techniques. Consecutively, they were de-paraffinized by immersing them in xylol, to be finally hydrated using a solution containing decreasing concentrations of ethanol, and finally submerged them into water. […] After this, the samples were left to cool down at room temperature for 10 minutes. The endogenous peroxidase activity was blocked with 3% peroxide of hydrogen for 30 minutes at room temperature. After washing the samples with 0.05 M of Tris buffer, they were incubated with 10% non-immune pork serum at for 30 minutes at room temperature. To analyze the expression of NK1 receptors, the cellular samples were incubated in the presence of anti-NK1 antibodies (S8305, Sigma-Aldrich) diluted 1:1000, overnight at 4°C. Afterwards, the samples were washed in Tris buffer 0.05 M at room temperature. The next step was the addition of Envision System-HRP (Dako) reagents for 30 minutes at room temperature. Then, the samples were washed again in Tris buffer 0.05 M and the immunoreactivity was visualized through light microscopy with a chromogenic solution containing 3,3'-Diaminobenzidine (DAB+; Dako, USA). To differentiate the cell nuclei, they were slightly stained with hematoxylin. As negative control, it was used samples not incubated with the primary antibody anti-NK1, which was replaced by non-immune serum. All the samples were evaluated.
(§3) To value the immunostaining in each of the cases six cuts were performed to be analyzed by the immunohistochemistry technique. In each of the six cuts, it was counted cells in 20 fields (magnification 400x) using an Olympus microscope (model CX31). In each field it was counted the total number of cells and the number of cells presenting immunostaining, calculating afterwards the percentage of cells which presented immunostaining.

[1] = system: human primary tumor cells; experiment: Inhibition of primary tumor cell cultures vs amplification of the gene encoding the NK1 receptor (Example 6; tumor type per table line); assay type: cell-based; settings: for Percentage of inhibition of cell cultures: 100 micromolar
Experimental: Cell cultures. […] Briefly, small pieces of the tumors were digested into a hyaluronidase solution (Sigma-Aldrich, USA) at a concentration of 1 mg/ml during 15 minutes at 37°C, and then they were treated with 6 mg/ml of collagenase type IV (Invitrogen) during 2 hours at 37°C. Consecutively, cells were washed, and resuspended in the DMEM culture medium with high concentration of glucose (Dulbecco's Modified Eagle's Medium, Invitrogen) supplemented with 1% of antibiotics-antimycotics (Invitrogen) and with 1% of sodium pyruvate (Invitrogen), and the cells were seeded in culture slides at a concentration of 10.000 cells per square centimeter. When cells reached confluence, the adherent cells were separated using sterile trypsin at 0,5% (Invitrogen) and they were used among passages 3 and 9. For the assays shown next, tumor cells were seeded on slides at a concentration of 25.000 cells per well. A total of 6 wells containing the tumor cells were used as survival control. […] All the cultures were kept during 48 hours and later on recollected for their analysis.
The presence or absence of the amplification of the gene encoding for the NK1 receptor was determined, and then the cells were cultured in the presence of several antagonists of the NK1 receptor.
For each case, the presence or absence of amplification of the gene encoding for the NK1 receptor was determined.
In order to determine the presence of the amplification (increase in the number of copies) of the gene encoding the NK1 receptor (TAC1R), it was used the comparative genomic hybridization technique (CGH Array). Firstly genomic DNA was extracted from each case. Later, it was performed the marking and hybridization of the DNA of each sample together with DNA of a commercial reference without genomic alterations (from masculine or feminine sex, depending on the gender of the patient from whom the samples were obtained). The Array is Sureprint G3 Human CGH Microarray from the company Agilent was used, with an average separation between probes of 5.3Kb and 4.6Kb for the genes RefSeq. The reading of the microarray was done with the DNA Microarray Scanner G2565CA from Agilent, at a resolution of 3 µm. The analysis of the results was performed with the software Cytogenomics v 2.0.6.0 from Agilent with ADM-2: 6.0; Centralization: ON (Threshold: 6.0, Bin size: 10); Fuzzy zero: ON; Aberration filters: ON (minProbes=5 and minAvgAbsLopRatio= 0,5); Feature Level Filters : ON. The genomic coordinates are coincident with the NCBI36genome (hg18). Cases were distributed in two groups: Group I for those cases without the amplification of the gene encoding the NK1 receptor (locus 2p13.1-p12), and Group II for those cases with amplification of the gene encoding the NK1receptor (locus 2p13.1-p12).
The antibody against NK1 receptor (Table 36) was used at 1/50 concentration. The percentages of inhibition are expressed in percentages of variation in relation to control ± standard deviation.

[2] = system: Lung carcinoma (non small cell type); experiment: Inhibition of primary tumor cell cultures (48 hours) vs NK1 receptor immunostaining (Example 1); assay type: cell-based; settings: Homo sapiens, 1 micromolar, read-out: Percentage of inhibition of cell cultures
Experimental: as §1, §2, §3

Leukemia B = experiment: as above; assay type: cell-based; settings: Homo sapiens, 1 micromolar, read-out: Percentage of inhibition of cell cultures
Experimental: as §1, §2, §3

Pancreatic carcinoma = experiment: as above; assay type: cell-based; settings: Homo sapiens, 1 micromolar, read-out: Percentage of inhibition of cell cultures
Experimental: as §1, §2, §3

[3] = system: Colon carcinoma (Adenocarcinoma); experiment: Inhibition of primary tumor cell cultures vs Kras mutation (Example 2); assay type: cell-based, human; settings: Homo sapiens, 100 micromolar, read-out: Percentage of inhibition of cell cultures
Experimental: as §1
(§4) In each case the presence or not of mutations in K-ras gene was determined.
(§5) To determine the existence of mutations in the K-ras gene DNA from cancer tumor cells was extracted from samples obtained from the different cancer tumor cells, using DNA extraction kits from Takara (Madison, WI, US) or Ambion (Huntingdon, Cambridgeshire, United Kingdom), following the manufacturer's instructions, and as it has been previously published (Di Fiore F, et al. 2007). Consecutively it was analyzed by sequencing the exon 2 of the KRAS gene, , by means of PCR amplification from previously extracted cancer tumor DNA, using the following sense primer (SEQ ID NO. 15): 5'-[sequence]-3' and anti-sense primer (SEQ ID NO. 16): 5'-[sequence]-3'. After the purification using the Qiagen extraction kit, the PCR products were sequenced using the Big Dye Terminator Kit V3.1 (Applied Biosystems, Foster City, CA, U.S.) and an ABI Prism 377 or 3100 DNA sequencer (Applied Biosystems). The presence of a heterozygous mutation in the KRAS gene in cancer tumor cells of the cultures was defined as the appearance of a mutant peak of a height of at least a third of the wild type. All the sequence analysis were executed at least twice in two independent PCR.
(§6) The antibody against NK1 receptor (Table 16) was used at 1/50 concentration. The percentages of inhibition are expressed in percentage of variation in relation to control ± standard deviation.

[4] = system: Thyroid carcinoma (papillary carcinoma); experiment: as above; assay type: cell-based, human; settings: Homo sapiens, 100 micromolar, read-out: Percentage of inhibition of cell cultures
Experimental: (§7) To obtain tumor cells from human primary tumors we used the method described in De Bari et al. (De Bari et al. 2001). Briefly, small pieces of the tumors were digested into a hyaluronidase solution (Sigma-Aldrich, USA) at a concentration of 1 mg/ml during 15 minutes at 37°C, and then they were treated with 6 mg/ml of collagenase type IV (Invitrogen) during 2 hours at 37°C. Consecutively, cells were washed, and resuspended in the DMEM culture medium with high concentration of glucose (Dulbecco's Modified Eagle's Medium, Invitrogen) supplemented with 1% of antibiotics-antimycotics (Invitrogen) and with 1% of sodium pyruvate (Invitrogen), and the cells were seeded in culture slides at a concentration of 10.000 cells per square centimeter. When cells reached confluence, the adherent cells were separated using sterile trypsin at 0,5% (Invitrogen) and they were used among passages 3 and 9. For the assays shown next, tumor cells were seeded on slides at a concentration of 25.000 cells per well. A total of 6 wells containing the tumor cells were used as survival control. […] All the cultures were kept during 48 hours and later on recollected for their analysis.
as §4, §5, §6

[5] = system: Lung carcinoma (small cell lung carcinoma); experiment: as above; assay type: cell-based, human; settings: Homo sapiens, 100 micromolar, read-out: Percentage of inhibition of cell cultures
Experimental: as §7, §4, §5, §6

[6] = system: Thyroid carcinoma (papillary type); experiment: Inhibition of primary tumor cell cultures (48 hours) vs NK1 receptor immunostaining (Example 1); assay type: cell-based; settings: Homo sapiens, 1 micromolar, read-out: Percentage of inhibition of cell cultures
Experimental: as §1, §2, §3

[7] = system: Malignant Fibrous Histiocytoma; experiment: as above; assay type: cell-based; settings: Homo sapiens, 1 micromolar, read-out: Percentage of inhibition of cell cultures
Experimental: as §1, §2, §3

[8] = NK1 receptor immunostaining Group 1 (less than 20% of the cells)
[9] = NK1 receptor immunostaining Group 2 (20-80% of the cells)
[10] = NK1 receptor immunostaining Group 3 (more than 80% of the cells)
[11] = NK1 receptor immunostaining Intensity grade 1
[12] = NK1 receptor immunostaining Intensity grade 2
[13] = NK1 receptor immunostaining Intensity grade 3
[14] = Cases with Kras non-mutated (wild type)

CC(=O)N1CCN([C@H]2CCN(C(=O)N(C)[C@H](C)c3cc(C(F)(F)F)cc(C(F)(F)F)c3)[C@@H](c3ccc(F)cc3C)C2)CC1 [Casopitant]
inhibition at 1 µM (Endometrium carcinoma; read-out: Percentage of inhibition of cell cultures, NK1 receptor immunostaining Intensity grade 1): 34 ± 5% | inhibition at 1 µM (Endometrium carcinoma; read-out: Percentage of inhibition of cell cultures, NK1 receptor immunostaining Intensity grade 2): 55 ± 5% | inhibition at 1 µM (Endometrium carcinoma; read-out: Percentage of inhibition of cell cultures, NK1 receptor immunostaining Intensity grade 3): 94 ± 4% | Percentage of inhibition of cell cultures ([1]; Breast carcinoma (ductal adenocarcinoma), Cases with amplification of the gene that encodes for the NK1 receptor): 94±7 percentage | Percentage of inhibition of cell cultures ([1]; Breast carcinoma (ductal adenocarcinoma), Cases without amplification of the gene that encodes for the NK1 receptor): 23±8 percentage | Percentage of inhibition of cell cultures ([1]; Burkitt Lymphoma, Cases with amplification of the gene that encodes for the NK1 receptor): 93±6 percentage | Percentage of inhibition of cell cultures ([1]; Burkitt Lymphoma, Cases without amplification of the gene that encodes for the NK1 receptor): 24±5 percentage | Percentage of inhibition of cell cultures ([1]; Carcinoma of the uterine cervix (Squamous cell carcinoma), Cases with amplification of the gene that encodes for the NK1 receptor): 94±6 percentage | Percentage of inhibition of cell cultures ([1]; Carcinoma of the uterine cervix (Squamous cell carcinoma), Cases without amplification of the gene that encodes for the NK1 receptor): 23±6 percentage | Percentage of inhibition of cell cultures ([1]; Colon carcinoma (Adenocarcinoma), Cases with amplification of the gene that encodes for the NK1 receptor): 96±4 percentage | Percentage of inhibition of cell cultures ([1]; Colon carcinoma (Adenocarcinoma), Cases without amplification of the gene that encodes for the NK1 receptor): 24±4 percentage | Percentage of inhibition of cell cultures ([1]; Endometrium carcinoma, Cases with amplification of the gene that encodes for the NK1 receptor): 96±5 percentage | Percentage of inhibition of cell cultures ([1]; Endometrium carcinoma, Cases without amplification of the gene that encodes for the NK1 receptor): 24±4 percentage | Percentage of inhibition of cell cultures ([1]; Gastric carcinoma (Adenocarcinoma), Cases with amplification of the gene that encodes for the NK1 receptor): 95±5 percentage | Percentage of inhibition of cell cultures ([1]; Gastric carcinoma (Adenocarcinoma), Cases without amplification of the gene that encodes for the NK1 receptor): 23±5 percentage | Percentage of inhibition of cell cultures ([1]; Glioma (astrocytoma), Cases with amplification of the gene that encodes for the NK1 receptor): 95±4 percentage | Percentage of inhibition of cell cultures ([1]; Glioma (astrocytoma), Cases without amplification of the gene that encodes for the NK1 receptor): 24±6 percentage | Percentage of inhibition of cell cultures ([1]; Lung carcinoma (non small cell lung carcinoma), Cases with amplification of the gene that encodes for the NK1 receptor): 96±5 percentage | Percentage of inhibition of cell cultures ([1]; Lung carcinoma (non small cell lung carcinoma), Cases without amplification of the gene that encodes for the NK1 receptor): 26±6 percentage | Percentage of inhibition of cell cultures ([1]; Lung carcinoma (small cell lung carcinoma), Cases with amplification of the gene that encodes for the NK1 receptor): 95±4 percentage | Percentage of inhibition of cell cultures ([1]; Lung carcinoma (small cell lung carcinoma), Cases without amplification of the gene that encodes for the NK1 receptor): 24±4 percentage | Percentage of inhibition of cell cultures ([1]; Melanoma (Nodular Melanoma), Cases with amplification of the gene that encodes for the NK1 receptor): 97±5 percentage | Percentage of inhibition of cell cultures ([1]; Melanoma (Nodular Melanoma), Cases without amplification of the gene that encodes for the NK1 receptor): 26±4 percentage | Percentage of inhibition of cell cultures ([1]; Non Hodgkin Lymphoma B (diffuse B cell lymphoma), Cases with amplification of the gene that encodes for the NK1 receptor): 95±7 percentage | Percentage of inhibition of cell cultures ([1]; Non Hodgkin Lymphoma B (diffuse B cell lymphoma), Cases without amplification of the gene that encodes for the NK1 receptor): 27±5 percentage | Percentage of inhibition of cell cultures ([1]; Non Hodgkin Lymphoma T (diffuse T cell lymphoma), Cases with amplification of the gene that encodes for the NK1 receptor): 95±5 percentage | Percentage of inhibition of cell cultures ([1]; Non Hodgkin Lymphoma T (diffuse T cell lymphoma), Cases without amplification of the gene that encodes for the NK1 receptor): 28±7 percentage | Percentage of inhibition of cell cultures ([1]; Ovarian carcinoma(Adenocarcinoma), Cases with amplification of the gene that encodes for the NK1 receptor): 95±4 percentage | Percentage of inhibition of cell cultures ([1]; Ovarian carcinoma(Adenocarcinoma), Cases without amplification of the gene that encodes for the NK1 receptor): 24±5 percentage | Percentage of inhibition of cell cultures ([1]; Pancreatic carcinoma (Adenocarcinoma), Cases with amplification of the gene that encodes for the NK1 receptor): 97±5 percentage | Percentage of inhibition of cell cultures ([1]; Pancreatic carcinoma (Adenocarcinoma), Cases without amplification of the gene that encodes for the NK1 receptor): 26±6 percentage | Percentage of inhibition of cell cultures ([1]; Prostate carcinoma, Cases with amplification of the gene that encodes for the NK1 receptor): 96±5 percentage | Percentage of inhibition of cell cultures ([1]; Prostate carcinoma, Cases without amplification of the gene that encodes for the NK1 receptor): 27±5 percentage | Percentage of inhibition of cell cultures ([1]; Renal cell carcinoma (clear cell renal cell carcinoma), Cases with amplification of the gene that encodes for the NK1 receptor): 93±6 percentage | Percentage of inhibition of cell cultures ([1]; Renal cell carcinoma (clear cell renal cell carcinoma), Cases without amplification of the gene that encodes for the NK1 receptor): 27±7 percentage | Percentage of inhibition of cell cultures ([1]; Thyroid carcinoma (follicular carcinoma), Cases with amplification of the gene that encodes for the NK1 receptor): 94±6 percentage | Percentage of inhibition of cell cultures ([1]; Thyroid carcinoma (follicular carcinoma), Cases without amplification of the gene that encodes for the NK1 receptor): 26±5 percentage | Percentage of inhibition of cell cultures ([1]; Thyroid carcinoma (papillary carcinoma), Cases with amplification of the gene that encodes for the NK1 receptor): 96±5 percentage | Percentage of inhibition of cell cultures ([1]; Thyroid carcinoma (papillary carcinoma), Cases without amplification of the gene that encodes for the NK1 receptor): 24±7 percentage | Percentage of inhibition of cell cultures ([1]; Undifferentiated Pleomorphic Sarcoma (malignant fibrous histiocytoma grade 3), Cases with amplification of the gene that encodes for the NK1 receptor): 96±6 percentage | Percentage of inhibition of cell cultures ([1]; Undifferentiated Pleomorphic Sarcoma (malignant fibrous histiocytoma grade 3), Cases without amplification of the gene that encodes for the NK1 receptor): 25±7 percentage | Percentage of inhibition of cell cultures ([1]; Urinary bladder carcinoma (transitional cell carcinoma), Cases with amplification of the gene that encodes for the NK1 receptor): 97±3 percentage | Percentage of inhibition of cell cultures ([1]; Urinary bladder carcinoma (transitional cell carcinoma), Cases without amplification of the gene that encodes for the NK1 receptor): 26±4 percentage | inhibition of cell proliferation ([1]; cancer cell cultures which show amplification in the genomic region encoding the NK1 receptor, compared, non-peptidic antagonists 100 micromolar, antibody 1/50): higher inhibition | inhibition at 1 µM [2, 8]: 10 ± 2% | inhibition at 1 µM [2, 9]: 46 ± 2% | inhibition at 1 µM [2, 10]: 92 ± 5% | inhibition at 1 µM [2, 11]: 32 ± 4% | inhibition at 1 µM [2, 12]: 54 ± 4% | inhibition at 1 µM [2, 13]: 93 ± 3% | inhibition at 1 µM (Leukemia B; [8]): 17 ± 3% | inhibition at 1 µM (Leukemia B; [9]): 46 ± 5% | inhibition at 1 µM (Leukemia B; [10]): 94 ± 6% | inhibition at 1 µM (Leukemia B; [11]): 36 ± 3% | inhibition at 1 µM (Leukemia B; [12]): 52 ± 3% | inhibition at 1 µM (Leukemia B; [13]): 92 ± 5% | inhibition at 1 µM (Pancreatic carcinoma; [8]): 10 ± 4% | inhibition at 1 µM (Pancreatic carcinoma; [9]): 45 ± 2% | inhibition at 1 µM (Pancreatic carcinoma; [10]): 92 ± 4% | inhibition at 1 µM (Pancreatic carcinoma; [11]): 33 ± 5% | inhibition at 1 µM (Pancreatic carcinoma; [12]): 53 ± 3% | inhibition at 1 µM (Pancreatic carcinoma; [13]): 93 ± 1% | inhibition at 100 µM ([3]; Cases with Kras mutated): 32 ± 4% | inhibition at 100 µM [3, 14]: 94 ± 6% | inhibition at 100 µM ([4]; Cases with Kras mutated): 24 ± 5% | inhibition at 100 µM [4, 14]: 94 ± 5% | inhibition at 100 µM ([5]; Cases with Kras mutated): 26 ± 4% | inhibition at 100 µM [5, 14]: 94 ± 2% | inhibition at 1 µM [6, 8]: 16 ± 2% | inhibition at 1 µM [6, 9]: 44 ± 2% | inhibition at 1 µM [6, 10]: 95 ± 5% | inhibition at 1 µM [6, 11]: 35 ± 4% | inhibition at 1 µM [6, 12]: 55 ± 6% | inhibition at 1 µM [6, 13]: 92 ± 3% | inhibition at 1 µM [7, 8]: 14 ± 3% | inhibition at 1 µM [7, 9]: 46 ± 4% | inhibition at 1 µM [7, 10]: 94 ± 5% | inhibition at 1 µM [7, 11]: 32 ± 5% | inhibition at 1 µM [7, 12]: 53 ± 4% | inhibition at 1 µM [7, 13]: 93 ± 2%
